In patent publication US9278990B2, “Substituted nucleotide analogs” (priority 2010, dated 2016):

B1: IFN-Lambda 1 (protein, UniProt Q8IU54 20-200, looked up)
Interferon lambda-1: GPVPTSKPTTTGKGCHIGRFKSLSPQELASFKKARDALEESLKLKNWSCSSPVFPGNWDLRLLQVRERPVALEAELALTLKVLEAAAGPALEDVLDQPLHTLHHILSQLQACIQPQPTAGPRPRGRLHHWLHRLQEAPKKESAGCLEASVTFNLFRLLTRDLKYVADGNLCLRTSTHPEST
B2: IFN-Lambda 2 (protein, UniProt Q8IZJ0 26-200, looked up)
Interferon lambda-2: VPVARLHGALPDARGCHIAQFKSLSPQELQAFKRAKDALEESLLLKDCRCHSRLFPRTWDLRQLQVRERPMALEAELALTLKVLEATADTDPALVDVLDQPLHTLHHILSQFRACIQPQPTAGPRTRGRLHHWLYRLQEAPKKESPGCLEASVTFNLFRLLTRDLNCVASGDLCV
B3: IFN-Lambda 3 (protein, UniProt Q8IZI9 22-196, looked up)
Interferon lambda-3: VPVARLRGALPDARGCHIAQFKSLSPQELQAFKRAKDALEESLLLKDCKCRSRLFPRTWDLRQLQVRERPVALEAELALTLKVLEATADTDPALGDVLDQPLHTLHHILSQLRACIQPQPTAGPRTRGRLHHWLHRLQEAPKKESPGCLEASVTFNLFRLLTRDLNCVASGDLCV

Tested on: HCV genotype 1b HCV replicon harbored in Huh7 cells
Assay: Combination testing in HCV replicon (CalcuSyn CI and MacSynergy II synergy volume)
Assay type: cell-based
Settings: combination of compound 3b with the listed combination compound; MacSynergy II (Bliss independence); 72 h; 25-100 synergistic, >100 strongly synergistic
Protocol: Two or more test compounds were tested in combination with each other using an HCV genotype 1b HCV replicon harbored in Huh7 cells with a stable luciferase (LUC) reporter. Cells were cultured under standard conditions in Dulbecco's modified Eagle's medium (DMEM; Mediatech Inc, Herndon, Va.) containing 10% heat-inactivated fetal bovine serum (FBS; Mediatech Inc, Herndon, Va.) 2 mM L-glutamine, and nonessential amino acids (JRH Biosciences). HCV replicon cells were plated in a 96-well plate at a density of 10^4 cells per well in DMEM with 10% FBS. […] The cells were incubated with no compound as a control, with the test compounds, or the combination of compounds for 72 h. The direct effects of the combination of the test compounds were examined using a luciferase (LUC) based reporter as determined by the Bright-Glo Luciferase Assay (Promega, Madison, Wis.). Dose-response curves were determined for individual compounds and fixed ratio combinations of two or more test compounds.
The effects of test compound combinations were evaluated by two separate methods. In the Loewe additivity model, the experimental replicon data was analyzed by using CalcuSyn (Biosoft, Ferguson, Mo.), a computer program based on the method of Chou and Talalay. The program uses the experimental data to calculate a combination index (CI) value for each experimental combination tested. A CI value of <1 indicates a synergistic effect, a CI value of 1 indicates an additive effect, and a CI value of >1 indicates an antagonistic effect.
The second method utilized for evaluating combination effects used a program called MacSynergy II. MacSynergy II software was kindly provided by Dr. M. Prichard (University of Michigan). The Prichard Model allows for a three-dimensional examination of drug interactions and a calculation of the synergy volume (units: μM^2 %) generated from running the replicon assay using a checkerboard combination of two or more inhibitors. The volumes of synergy (positive volumes) or antagonism (negative volumes) represent the relative quantity of synergism or antagonism per change in the concentrations of the two drugs. Synergy and antagonism volumes are defined based on the Bliss independence model. In this model, synergy volumes of less than −25 indicate antagonistic interactions, volumes in the −25-25 range indicate additive behavior, volumes in the 25-100 range indicate synergistic behavior and volumes >100 indicate strong synergistic behavior.

Point of comparison: B1, “Synergy Volume” value 116 μM^2%. Against it:
- CC(C)(C)C#Cc1cc(N(C(=O)[C@H]2CC[C@H](C)CC2)[C@H]2CC[C@H](O)CC2)c(C(=O)O)s1 [VX-222] — lower, 38 μM^2%
- CCC[C@H](NC(=O)[C@@H]1[C@H]2CCC[C@H]2CN1C(=O)[C@@H](NC(=O)[C@@H](NC(=O)c1cnccn1)C1CCCCC1)C(C)(C)C)C(=O)C(=O)NC1CC1 [VX-950, Telaprevir] — lower, 76 μM^2%
- B2 — lower, 34 μM^2%
- B3 — lower, 35 μM^2%

Target: T1, NS5B570-Con1 (Delta-21) (Hepatitis C virus genotype 1b, UniProt Q9WMX2)
T1 construct: NS5B570-Con1 (Delta-21)
Assay: NS5B inhibition assay
Assay type: biochemical, HCV
Settings: IC50 value, incorporation of tritiated NMP into acid-insoluble RNA, 2 hours at 37° C.
Protocol: The enzyme activity of NS5B570-Con1 (Delta-21) was measured as an incorporation of tritiated NMP into acid-insoluble RNA products. The complementary IRES (cIRES) RNA sequence was used as a template, corresponding to 377 nucleotides from the 3′-end of HCV (−) strand RNA of the Con-1 strain, with a base content of 21% Ade, 23% Ura, 28% Cyt, and 28% Gua. The cIRES RNA was transcribed in vitro using a T7 transcription kit (Ambion, Inc.) and purified using the Qiagen RNeasy maxi kit. HCV polymerase reactions contained 50 nM NS5B570-Con1, 50 nM cIRES RNA, about 0.5 μCi tritiated NTP, 1 μM of competing cold NTP, 20 mM NaCl, 40 mM Tris-HCl (pH 8.0), 4 mM dithiothreitol, and 4 mM MgCl2. Standard reactions were incubated for 2 hours at 37° C., in the presence of increasing concentration of inhibitor. At the end of the reaction, RNA was precipitated with 10% TCA, and acid-insoluble RNA products were filtered on a size exclusion 96-well plate. After washing of the plate, scintillation liquid was added and radio labeled RNA products were detected according to standard procedures with a Trilux Topcount scintillation counter.

First: C[C@@]1(O)[C@H](O)[C@@H](COP(O)(=S)OP(=O)(O)OP(=O)(O)O)O[C@H]1n1ccc(=O)[nH]c1=O (single isomer, unassigned) [Compound 5a]
Second: C[C@@]1(F)[C@H](O)[C@@H](COP(O)(=S)OP(=O)(O)OP(=O)(O)O)O[C@H]1n1ccc(=O)[nH]c1=O (single isomer, unassigned) [Compound 5c]
The IC50 of the first is higher: 10 to 100 µM for the first, 1 to 10 µM for the second.

First: C[C@@]1(O)[C@H](O)[C@@H](COP(O)(=S)OP(=O)(O)OP(=O)(O)O)O[C@H]1n1ccc(=O)[nH]c1=O (single isomer, unassigned) [Compound 5b]
Second: C[C@@]1(F)[C@H](O)[C@@H](COP(O)(=S)OP(=O)(O)OP(=O)(O)O)O[C@H]1n1ccc(=O)[nH]c1=O (single isomer, unassigned) [Compound 5d]
The IC50 of the first is lower: less than 1 µM for the first, 10 to 100 µM for the second.

`C[C@@]1(F)[C@H](O)[C@@H](COP(O)(=S)OP(=O)(O)OP(=O)(O)O)O[C@H]1n1cnc2c(=O)[nH]c(N)nc21` (single isomer, unassigned) [Compound 5e] and `C[C@@]1(O)[C@H](O)[C@@H](COP(O)(=S)OP(=O)(O)OP(=O)(O)O)O[C@H]1n1cnc2c(=O)[nH]c(N)nc21` (single isomer, unassigned) [Compound 5g] cannot be ordered by IC50: less than 1 µM for the first, less than 1 µM for the second.

Work on `C[C@@]1(O)[C@H](O)[C@@H](COP(O)(=S)OP(=O)(O)OP(=O)(O)O)O[C@H]1n1cnc2c(=O)[nH]c(N)nc21` (single isomer, unassigned) [Compound 5h] yielded an IC50 of 1 to 10 µM.

Same assay, conditions: read-out: IC50 value, incorporation of tritiated NMP into acid-insoluble RNA, 2 hours at 37° C.

Molecule `C[C@@]1(F)[C@H](O)[C@@H](COP(O)(=S)OP(=O)(O)OP(=O)(O)O)O[C@H]1n1cnc2c(=O)[nH]c(N)nc21` (single isomer, unassigned) [Compound 5f] has an IC50 of less than 1 µM.
